We go through five molecules from patent US5569670A, “Combination medications containing alpha-lipoic acid and related” (Asta Medica Aktiengesellschaft, priority 1992, dated 1996).

Series [1] is described as follows: in vivo. The conditions noted are these: mouse, in vivo.
For series [2] the following is noted: cited from earlier work.
For series [3] the following is noted: cited from earlier work. This is another data set of the same source.
The nature of series [4]: in vivo. To be noted: in vivo, rat.
In series [5] the test system is mouse. The series can be described thus: in vivo.
The subject of series [6] is rat. The series can be described thus: in vivo.
Setting [7] is: po, oral administration, LITCHFIELD and WILCOXON method, read-out: acute toxicity LD50.

Like-named read-outs stand apart in the source and are kept apart here.

`O=C(O)CCCC[C@@H]1CCSS1` [R-alpha-lipoic acid]: in series [1] (setting [7]), the LD50 was above 1000 mg/kg. For the same molecule, the “predominant effect of the enantiomer (anti-inflammatory)” value in series [2] (in vivo) was “predominantly anti-inflammatory effect”. The “anti-inflammatory effect relative to the racemate” value in series [2] (x times stronger than the racemate) is reported as 10 times.

As for `O=C(O)CCCC[C@H]1CCSS1` [S-alpha-lipoic acid], the “predominant effect of the enantiomer (antinociceptive)” value in series [3] (in vivo) is “predominantly antinociceptive effect”. In addition, the “antinociceptive (analgesic) effect relative to the racemate” value in series [3] (up to x times stronger than the racemate) was “up to 6 times”. Besides, the LD50 in series [1] (setting [7]) is above 1000 mg/kg.

Turning to `O=C1O[C@H]([C@@H](O)CO)C(O)=C1O` [Vitamin C, ascorbic acid], the LD50 was 1060 mg/kg in series [1] (iv, read-out: LD50); 8020 mg/kg in series [1] (po, read-out: LD50); 1000 mg/kg in series [4] (iv); above 5000 mg/kg in series [4] (po).

Regarding Vitamin B6, the LD50 in series [5] (i.v.) is 1020 mg/kg; in series [5] (p.o.), 8400 mg/kg; in series [6] (i.v.), 1450 mg/kg; in series [6] (p.o.), 5500 to 15900 mg/kg.

`O=C(O)CCCCC1CCSS1` (racemic) [alpha-lipoic acid (racemate), 1,2-dithia-cyclopentane-3-valeric acid]: the LD50 stood at 460 mg/kg in series [1] (po, female, read-out: LD50); 502 mg/kg in series [1] (po, male, read-out: LD50); 1210 mg/kg in series [4] (po, female); 1190 mg/kg in series [4] (po, male).
